Measured values from ChEMBL document CHEMBL1201862, “PubChem BioAssay data set” (2004).
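Each compound was tested at five concentrations against cells in 96-well plates for 48 hours. GI50 marks 50% less growth.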 Calls of active or inactive are those of the source. Cut-off read from the data, not from the text of the source: active = GI50 up to about 1.1 µM and inactive = higher.

Legend:
Assay in all cases: growth of human tumour cells (NCI), 48 h
A498 = system: A498
SK-MEL-2 = system: SK-MEL-2
SNB-19 = system: SNB-19
U-251 = system: U-251
NCI-H460 = system: NCI-H460
SN12C = system: SN12C
NCI-H226 = system: NCI-H226
CCRF-CEM = system: CCRF-CEM
LOX IMVI = system: LOX IMVI
OVCAR-5 = system: OVCAR-5
KM12 = system: KM12
MCF7 = system: MCF7
MDA-MB-435 = system: MDA-MB-435
MOLT-4 = system: MOLT-4
MDA-N = system: MDA-N
ACHN = system: ACHN
MDA-MB-231 = system: MDA-MB-231
BT-549 = system: BT-549
HCT-116 = system: HCT-116
SR = system: SR

Measured: GI50

Cc1ccc(S(=O)(=O)NC(=O)NC(Cc2ccc(O)c(O)c2)C(=O)O)cc1 (stereo not drawn)
inactive: A498 > 100 µM | SK-MEL-2 > 100 µM | SNB-19 > 100 µM | U-251 > 100 µM | NCI-H460 > 100 µM | SN12C > 100 µM | NCI-H226 > 100 µM | CCRF-CEM 25.1 µM | LOX IMVI > 100 µM | OVCAR-5 > 100 µM | KM12 > 100 µM | MCF7 > 100 µM | MDA-MB-435 > 100 µM | MOLT-4 > 100 µM | MDA-N > 100 µM | ACHN > 100 µM | MDA-MB-231 > 100 µM | BT-549 > 100 µM | HCT-116 > 100 µM

O=C(CC(C(=O)c1cccs1)c1ccsc1)c1cccs1 (stereo not drawn)
inactive: A498 38.6 µM | SNB-19 > 100 µM | U-251 > 100 µM | NCI-H460 43.9 µM | SN12C > 100 µM | NCI-H226 > 100 µM | CCRF-CEM 37.8 µM | OVCAR-5 > 100 µM | KM12 71.3 µM | MCF7 52.2 µM | MDA-MB-435 29.1 µM | MOLT-4 46.7 µM | MDA-N 25.8 µM | SR 36 µM | ACHN > 100 µM | MDA-MB-231 > 100 µM | BT-549 81.8 µM | HCT-116 29.9 µM

CC1(C)C2CCC1(C)C(NC(=O)CCN1CCOCC1)C2 (stereo not drawn)
inactive: A498 > 100 µM | SNB-19 > 100 µM | U-251 > 100 µM | NCI-H460 > 100 µM | SN12C > 100 µM | NCI-H226 > 100 µM | CCRF-CEM > 100 µM | OVCAR-5 > 100 µM | KM12 > 100 µM | MCF7 > 100 µM | MDA-MB-435 > 100 µM | MOLT-4 > 100 µM | MDA-N > 100 µM | SR > 100 µM | ACHN > 100 µM | MDA-MB-231 > 100 µM | BT-549 > 100 µM | HCT-116 > 100 µM

Cc1ccc(/C=N/n2c(-c3ccc(C)cc3)n[nH]c2=O)cc1
inactive: A498 26.9 µM | SK-MEL-2 > 100 µM | SNB-19 77.4 µM | U-251 35.3 µM | NCI-H460 21.5 µM | SN12C 94.6 µM | NCI-H226 > 100 µM | CCRF-CEM 21.5 µM | OVCAR-5 84.9 µM | KM12 > 100 µM | MCF7 > 100 µM | MDA-MB-435 47.2 µM | MOLT-4 92.7 µM | MDA-N 80.7 µM | SR 25.4 µM | ACHN 79.8 µM | MDA-MB-231 45.8 µM | BT-549 90.4 µM | HCT-116 54 µM

CCOC(=O)CC(=O)C(=O)NN=C1NCCN1
inactive: SK-MEL-2 > 100 µM | SNB-19 > 100 µM | U-251 > 100 µM | NCI-H460 > 100 µM | SN12C > 100 µM | NCI-H226 > 100 µM | CCRF-CEM > 100 µM | LOX IMVI > 100 µM | OVCAR-5 > 100 µM | KM12 > 100 µM | MCF7 > 100 µM | MDA-MB-435 > 100 µM | MOLT-4 > 100 µM | MDA-N > 100 µM | SR > 100 µM | ACHN > 100 µM | MDA-MB-231 > 100 µM | BT-549 > 100 µM | HCT-116 > 100 µM

CCOC(=O)c1cn2c(n1)sc1cc(OC)ccc12
inactive: A498 46.3 µM | SK-MEL-2 14.9 µM | SNB-19 9.82 µM | U-251 2.81 µM | NCI-H460 29.8 µM | SN12C 7.41 µM | NCI-H226 25.1 µM | LOX IMVI 18.2 µM | OVCAR-5 14.7 µM | KM12 3.34 µM | MCF7 5.13 µM | MDA-MB-435 1.18 µM | MOLT-4 4.61 µM | MDA-N 2.6 µM | ACHN 8.75 µM | MDA-MB-231 37.3 µM | BT-549 > 69.7 µM | HCT-116 5.42 µM

COc1cc(/C=C2\C[C@H]3[C@@H]4CC=C5C[C@@H](N6CCCC6)CC[C@]5(C)[C@H]4CC[C@]3(C)[C@H]2OC(C)=O)cc(OC)c1OC
inactive: A498 15.2 µM | SK-MEL-2 17.7 µM | SNB-19 18.4 µM | U-251 15.8 µM | SN12C 14 µM | NCI-H226 24.8 µM | CCRF-CEM 12.9 µM | OVCAR-5 15.8 µM | KM12 15.1 µM | MCF7 15.9 µM | MDA-MB-435 12.9 µM | MOLT-4 6.38 µM | MDA-N 10.9 µM | ACHN 18.9 µM | MDA-MB-231 16.3 µM | BT-549 14.9 µM | HCT-116 15.5 µM

CN(CCCNC(=O)c1cn(C)c2c1ccc1cc(Cl)ccc12)CCCNC(=O)c1cn(C)c2c1ccc1cc(Cl)ccc12
inactive: A498 5.86 µM | SK-MEL-2 1.69 µM | SNB-19 2.39 µM | U-251 1.71 µM | NCI-H460 1.56 µM | SN12C 1.87 µM | NCI-H226 20.6 µM | CCRF-CEM 1.23 µM | LOX IMVI 1.64 µM | OVCAR-5 3.09 µM | KM12 1.72 µM | MDA-MB-435 1.71 µM | MOLT-4 1.73 µM | MDA-N 2.23 µM | SR 2.54 µM | ACHN 1.71 µM | MDA-MB-231 1.75 µM | BT-549 8.99 µM | HCT-116 1.88 µM

CCCCCCNc1n[nH]c(=O)c2c1nnn2Cc1ccccc1
inactive: SK-MEL-2 > 100 µM | SNB-19 > 100 µM | U-251 > 100 µM | NCI-H460 > 100 µM | SN12C > 100 µM | CCRF-CEM > 100 µM | LOX IMVI > 100 µM | OVCAR-5 > 100 µM | KM12 > 100 µM | MCF7 > 100 µM | MDA-MB-435 > 100 µM | MOLT-4 > 100 µM | MDA-N > 100 µM | SR > 100 µM | ACHN > 100 µM | MDA-MB-231 > 100 µM | BT-549 > 100 µM | HCT-116 > 100 µM

C[C@@H](CC(O)C(O)C(C)(C)O)C1CCC23CC12CCC1[C@@]2(C)CCC(=O)C(C)(C)C2CC(OC2OC(CO)C(O)C(O)C2O)[C@]13C (stereo partly drawn)
inactive: A498 > 10 µM | SK-MEL-2 > 10 µM | SNB-19 > 10 µM | U-251 > 10 µM | NCI-H460 > 10 µM | SN12C > 10 µM | NCI-H226 > 10 µM | CCRF-CEM > 10 µM | LOX IMVI > 10 µM | OVCAR-5 > 10 µM | KM12 > 10 µM | MCF7 > 10 µM | MDA-MB-435 > 10 µM | MOLT-4 > 10 µM | MDA-N > 10 µM | ACHN > 10 µM | MDA-MB-231 > 10 µM | BT-549 > 10 µM | HCT-116 > 10 µM

c1ccc2c(c1)ccn2CCc1c[nH]c2ccccc12
inactive: SK-MEL-2 > 10 µM | SNB-19 > 10 µM | U-251 > 10 µM | NCI-H460 > 10 µM | SN12C > 10 µM | NCI-H226 8.07 µM | CCRF-CEM > 10 µM | LOX IMVI > 10 µM | OVCAR-5 > 10 µM | KM12 > 10 µM | MCF7 > 10 µM | MDA-MB-435 > 10 µM | MOLT-4 > 10 µM | MDA-N > 10 µM | SR > 10 µM | ACHN > 10 µM | MDA-MB-231 > 10 µM | BT-549 > 10 µM | HCT-116 > 10 µM
